Measured values published in patent US6344351B2, “(R)-transaminase from arthrobacter” (Kaneka Corporation, priority 1995, dated 2002).
Where two headings read alike, the source gives them in different places.

Experiments:
[1] = system: Arthrobacter species KNK168 strain; assay: Amino donor test; (R)-DMA formation by cultured cells; assay type: cell-based
Procedure: The cultured cells were harvested by centrifugation, and the harvested cells were suspended in a reaction mixture (pH 8.5) containing 1% of 1-(3,4-dimethoxyphenyl)-2-propanone, […] of Triton X-100, and 1% of an amino donor shown in Table 2. The components were reacted at 35° C. for 20 hours.

[2] = system: Arthrobacter species KNK168 strain; assay: Inducer added to culture medium; (R)-DMA formation by the separated cells; assay type: cell-based; conditions: cells reacted 30° C., 20 hours, 1% 1-(3,4-dimethoxyphenyl)-2-propanone, 1% (RS)-1-methylpropylamine
Procedure: When culturing the Arthrobacter species KNK168 strain by the method described in Example 1, (RS)-1-methylpropylamine, (RS)-1-methylbutylamine, (RS)-3-amino-2,2-dimethylbutane, (RS)-2-amino-1-butanol, or (RS)-1-phenylethylamine was added to the medium in place of (R)-1-(3,4-dimethoxyphenyl)-2-aminopropane ((R)-DMA). The cells were separated from the medium, and the reaction was carried out at 30° C. for 20 hours using the above cells in a reaction mixture containing 1% of 1-(3,4-dimethoxyphenyl)-2-propanone and 1% of (RS)-1-methylpropylamine.

[3] = system: benzylamine transaminase of Okada et al.; parameters: Transaminase of Okada et al. (Relative Activity: %), Substrate Specificity: concentration or dose not given beside the values; conditions: cited from earlier work; for Transaminase of Okada et al. (Relative Activity: %), Substrate Specificity: purified enzyme, patent publication data, pyruvic acid as amino acceptor
[4] = system: transaminase (intracellular enzyme) of Arthrobacter sp. KNK168; assay: Activity of the transaminase (intracellular enzyme) against typical substrates of ω-aminotransferases; assay type: biochemical
[5] = system: (R)-form-specific transaminase of Arthrobacter sp. KNK168; assay: Reactivity of purified transaminase of present invention to amino compounds, pyruvic acid as amino acceptor; assay type: biochemical; parameters: Transaminase of Present Invention (Relative Activity: %), Substrate Specificity: concentration or dose not given beside the values; conditions: for Transaminase of Present Invention (Relative Activity: %), Substrate Specificity: pyruvic acid as amino acceptor
From the text: (§1) The differences with the ω-amino acid transaminase derived from Pseudomonas sp. F-1 (Agric. Biol. Chem., 42, 2363-2367 (1978), Agric. Biol. Chem., 43, 1043-1048 (1979), J. Biol. Chem., 258, 2260-2265 (1983)) which have been well studied among the ω-amino acid transaminases, and with the benzylamine transaminase of Okada et al. (Japanese Patent Laid-Open No. Hei 6-178685) are summarized and shown in Table 2. In a case of the transaminase action in the present invention, the data of the purified enzyme are used, and in cases of those by other two enzymes, the data of the purified enzymes which are disclosed in each of the literature publication and patent publication are used. Pyruvic acid is used as an amino acceptor in all cases.
Using the purified enzyme obtained in Example 9, reactivities to various amino compounds when using pyruvic acid as an amino acceptor were evaluated. 150 μl of a solution of the purified enzyme diluted ten-folds was added to 150 μl of a substrate solution (0.1 M potassium phosphate buffer (pH 8.3), 40 mM pyruvic acid, 0.1 mM pyridoxal phosphate, and 40 mM various amino compounds). The components were reacted at 30° C. for 1 hour. The reaction tube was transferred into boiling water to stop the reaction, and, thereafter, a part of the reaction mixture was diluted five-folds. Ten μl of 0.1 M boric acid buffer (pH 8.0) and 20 μl of an ethanol solution of 80 mM of 4-fluoro-7-nitro-2,1,3-benzoxadiazole (NBD-F) were added to 10 μl of the above-mentioned diluted reaction mixture. The components were reacted at 60° C. for 1 minute, and, thereafter, the reaction mixture was ice-cooled, and 460 μl of 5 mM HCl was added thereto. This reaction mixture was analyzed by high-performance liquid chromatography using fine pack C18-5 column and using a 0.1 M potassium phosphate buffer (pH 6.5) and CH3CN (90:10) as an eluent solution to detect formation of alanine-NBD using excitation wavelength of 470 nm and using detection wave of […]. The results thereof are shown in Table 8 in terms of relative activity in the case of using […] as a substrate.

[6] = target: T1, ω-amino acid transaminase derived from Pseudomonas sp. F-1 (Pseudomonas putida, UniProt P28269); parameters: concentration or dose not given beside the values; conditions: purified enzyme, literature data; pyruvic acid as amino acceptor; cited from earlier work
T1 sequence (P28269 1-449): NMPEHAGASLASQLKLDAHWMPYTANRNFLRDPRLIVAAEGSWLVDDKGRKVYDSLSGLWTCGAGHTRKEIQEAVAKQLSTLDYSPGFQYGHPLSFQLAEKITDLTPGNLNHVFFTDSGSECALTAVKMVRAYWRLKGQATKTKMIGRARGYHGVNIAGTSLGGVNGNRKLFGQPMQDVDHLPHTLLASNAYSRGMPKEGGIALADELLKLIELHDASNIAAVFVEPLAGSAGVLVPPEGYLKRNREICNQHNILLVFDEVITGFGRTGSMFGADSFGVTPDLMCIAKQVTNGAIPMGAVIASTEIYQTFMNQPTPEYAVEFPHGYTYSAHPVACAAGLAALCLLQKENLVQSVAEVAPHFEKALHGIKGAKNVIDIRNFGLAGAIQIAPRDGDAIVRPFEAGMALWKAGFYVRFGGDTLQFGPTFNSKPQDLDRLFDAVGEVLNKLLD

[7] = system: transaminase derived from Arthrobacter; assay: Usability as amino group donor, transaminase of present invention; assay type: biochemical; conditions: +/− without printed key, or words
From the text: Further, the transaminase derived from Arthrobacter which can be used in the present invention is different from the above-mentioned enzyme derived from Brevibacterium in many other aspects.

[8] = system: (R)-form-specific transaminase of Arthrobacter sp. KNK168; assay: Influence of reaction inhibitors on purified transaminase of present invention; assay type: biochemical; conditions: for Transaminase of Present Invention (Relative Activity: %) with inhibitor: inhibitor 1 mM, without addition = 100
From the text: as §1

[9] = target: T1, ω-amino acid transaminase derived from Pseudomonas sp. F-1; conditions: inhibitor 1 mM; without addition = 100; cited from earlier work
[10] = system: benzylamine transaminase of Okada et al.; conditions: without addition = 100, cited from earlier work
[11] = system: Arthrobacter species KNK168 strain; assay: Resolution of racemic 2-amino-1-methoxypropane by cells with aldehyde amino acceptors; assay type: cell-based; conditions: 150 mM aldehyde as amino acceptor, 200 mM racemic 2-amino-1-methoxypropane, 30° C., 20 hours
Procedure: The Arthrobacter species KNK168 strain was cultured in the same manner as in Example 13, and the cells were separated from 1 ml of the culture. The cells were suspended in 1 ml of a reaction mixture containing a 0.1 M Tris-hydrochloric acid buffer (pH 8.5), 50 mg of racemic 2-amino-1-methoxypropane, 37.5 mg of pyruvic acid, and 0.1% of sodium dodecyl sulfate. The components were reacted at 30° C. for 24 hours with stirring. As a result of the analysis after the reaction, 23.4 mg of 2-amino-1-methoxypropane remained, and its optical purity was 95% ee ((S)-form).
By carrying out the same reaction as in Example 14 using 200 mM racemic 2-amino-1-methoxypropane, and 150 mM n-butylaldehyde or propionaldehyde, the components were reacted at 30° C. for 20 hours. As a result of the analysis thereof, the (S)-form of 2-amino-1-methoxypropane was concentrated, and the ratio of the (S)-form was 76% in a case of using n-butylaldehyde, and 58% in a case of using propionaldehyde.

CC(N)c1ccccc1 (racemic) [(RS)-1-Phenylethylamine]
function as amino donor [1]: most highly preferable
(R)-DMA Formed (%), inducer in culture medium [2]: 8.0%

NCCC(=O)O [β-Alanine]
Transaminase of Okada et al. (Relative Activity: %), Substrate Specificity [3]: 0%
activity of the transferase to amino donor [4]: does not act
Relative Activity (%) as amino donor ([4]; amino acceptor pyruvic acid, (R)-1-phenylethylamine control = 100): 0%
action of the transaminase derived from Arthrobacter on the substrate [5]: does not act
Transaminase of Present Invention (Relative Activity: %), Substrate Specificity ([5]; purified enzyme): 0%
ω-Amino Acid Transaminase (Relative Activity: %), Substrate Specificity [6]: 100%

Cl.N [ammonium chloride]
Amino Group Donor, Transaminase of Present Invention [7]: cannot be used as an amino donor

CCCC(C)N (racemic) [(RS)-1-Methylbutylamine]
function as amino donor [1]: functioned as amino donors
(R)-DMA Formed (%), inducer in culture medium [2]: 13.0%

NO [Hydroxylamine]
influence of reaction inhibitor on the transaminase derived from Arthrobacter [8]: affected only a little
Transaminase of Present Invention (Relative Activity: %) with inhibitor [8]: 17%
ω-Amino Acid Transaminase (Relative Activity: %) with inhibitor [9]: 0%
Transaminase of Okada et al. (Relative Activity: %) with inhibitor ([10]; inhibitor 0.1 mM): 30%

CCC(N)CO (racemic) [(RS)-2-Amino-1-butanol]
(R)-DMA Formed (%), inducer in culture medium [2]: 12.9%

NNc1ccccc1 [Phenylhydrazine]
influence of reaction inhibitor on the transaminase derived from Arthrobacter [8]: affected only a little
Transaminase of Present Invention (Relative Activity: %) with inhibitor [8]: 82%
ω-Amino Acid Transaminase (Relative Activity: %) with inhibitor [9]: 6%
Transaminase of Okada et al. (Relative Activity: %) with inhibitor ([10]; inhibitor 1 mM): 27%

NCc1ccccc1 [Benzylamine]
action of benzylamine transaminase on substrate ([3]; in the presence of pyruvic acid): strongly acts
Transaminase of Okada et al. (Relative Activity: %), Substrate Specificity [3]: 100%
Relative Activity (%) of amino compounds ([5]; purified enzyme, 40 mM amino compound in substrate solution, 40 mM pyruvic acid, pH 8.3, 30° C., 1 hour, (R)-1-phenylethylamine = 100): 0.8%
Transaminase of Present Invention (Relative Activity: %), Substrate Specificity ([5]; purified enzyme): 0.8%
ω-Amino Acid Transaminase (Relative Activity: %), Substrate Specificity [6]: 45%

CCCC=O [n-butylaldehyde]
ratio of the (S)-form of 2-amino-1-methoxypropane [11]: 76%

O=S(=O)([O-])[O-].[Cu+2] [CuSO4]
Transaminase of Present Invention (Relative Activity: %) with inhibitor [8]: 44%
Transaminase of Okada et al. (Relative Activity: %) with inhibitor ([10]; inhibitor 0.5 mM): 5%

O=C(O)c1cc[c]([Hg][Cl])cc1 [p-Chloromercuribenzoic acid]
Transaminase of Present Invention (Relative Activity: %) with inhibitor [8]: 53%
ω-Amino Acid Transaminase (Relative Activity: %) with inhibitor [9]: 100%
Transaminase of Okada et al. (Relative Activity: %) with inhibitor ([10]; inhibitor 0.1 mM): 9%

CCCCN [n-Butylamine]
Transaminase of Okada et al. (Relative Activity: %), Substrate Specificity [3]: 0%
action of the transaminase derived from Arthrobacter on the substrate [5]: does not act
Transaminase of Present Invention (Relative Activity: %), Substrate Specificity ([5]; purified enzyme): 0%
ω-Amino Acid Transaminase (Relative Activity: %), Substrate Specificity [6]: 60%

CC(N)C(C)(C)C (racemic) [(RS)-3-Amino-2,2-dimethylbutane]
(R)-DMA Formed (%), inducer in culture medium [2]: 18.6%

NCCCCN [Putrescine]
Transaminase of Okada et al. (Relative Activity: %), Substrate Specificity [3]: 0%
Relative Activity (%) as amino donor ([4]; amino acceptor 2-ketoglutaric acid, (R)-1-phenylethylamine/pyruvic acid control = 100): 0%
action of the transaminase derived from Arthrobacter on the substrate [5]: does not act
Transaminase of Present Invention (Relative Activity: %), Substrate Specificity ([5]; purified enzyme): 0%
ω-Amino Acid Transaminase (Relative Activity: %), Substrate Specificity [6]: 55%

N[C@@H](CC(=O)O)C(=O)O [aspartic acid]
Amino Group Donor, Transaminase of Present Invention [7]: cannot be used as an amino donor

COc1ccc(C[C@@H](C)N)cc1OC [(R)-DMA, (R)-1-(3,4-dimethoxyphenyl)-2-aminopropane]
(R)-DMA Formed (%), inducer in culture medium [2]: 0.9%

CCC=O [propionaldehyde]
ratio of the (S)-form of 2-amino-1-methoxypropane [11]: 58%

NC1C=CC=C(C(=O)O)C1 (racemic) [Gabaculine]
Transaminase of Present Invention (Relative Activity: %) with inhibitor [8]: 24%
ω-Amino Acid Transaminase (Relative Activity: %) with inhibitor [9]: 0%

N[C@@H](CCC(=O)O)C(=O)O [glutamic acid]
Amino Group Donor, Transaminase of Present Invention [7]: cannot be used as an amino donor

CCC(C)N (racemic) [(RS)-1-Methylpropylamine]
function as amino donor [1]: functioned as amino donors
(R)-DMA Formed (%), amino group donor ([1]; 1% amino donor, 1% 1-(3,4-dimethoxyphenyl)-2-propanone, Triton X-100, pH 8.5, 35° C., 20 hours): 28.2%
(R)-DMA Formed (%), inducer in culture medium [2]: 22.3%

NCCc1ccccc1 [β-Phenethylamine]
Transaminase of Okada et al. (Relative Activity: %), Substrate Specificity [3]: 9%
Transaminase of Present Invention (Relative Activity: %), Substrate Specificity ([5]; purified enzyme): 0%
ω-Amino Acid Transaminase (Relative Activity: %), Substrate Specificity [6]: 54%
